One experiment addresses T1, CD2068 (Clostridioides difficile, UniProt Q188D7).
T1 construct: gene CD630_20680; full coding region in pET28a (NcoI/EcoRI), C-terminal His6 tag kept; expressed in E. coli BL21(DE3) pLysS; inside-out membrane vesicles; ~60 kDa
The experiment in a line: vanadate-sensitive ATPase stimulation, inside-out membrane vesicles, phosphate release. The format is biochemical.
Details: not given
The text has this:
vanadate-sensitive ATPase stimulation, inside-out membrane vesicles, phosphate release on CD2068
T1 sequence (Q188D7 entry or part of it): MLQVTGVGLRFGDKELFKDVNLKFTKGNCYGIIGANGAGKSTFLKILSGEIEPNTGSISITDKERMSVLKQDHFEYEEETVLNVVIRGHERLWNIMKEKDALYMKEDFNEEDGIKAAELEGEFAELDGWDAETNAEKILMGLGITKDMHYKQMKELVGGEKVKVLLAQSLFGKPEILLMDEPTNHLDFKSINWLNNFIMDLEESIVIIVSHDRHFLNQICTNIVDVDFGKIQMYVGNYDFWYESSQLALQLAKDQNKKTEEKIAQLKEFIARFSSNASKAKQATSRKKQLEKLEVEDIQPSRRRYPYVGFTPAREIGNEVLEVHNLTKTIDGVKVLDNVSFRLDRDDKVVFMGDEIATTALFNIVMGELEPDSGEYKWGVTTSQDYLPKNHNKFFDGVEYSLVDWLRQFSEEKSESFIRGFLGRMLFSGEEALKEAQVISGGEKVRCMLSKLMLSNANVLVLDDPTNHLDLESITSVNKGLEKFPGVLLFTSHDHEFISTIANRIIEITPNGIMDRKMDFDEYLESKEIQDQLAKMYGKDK
On to `Cc1onc(-c2ccccc2Cl)c1C(=O)N[C@@H]1C(=O)N2[C@@H]1SC(C)(C)[C@@H]2C(=O)O` [Cloxacillin], for which the EC50 is 3 µM. The same measure, in the same setting: in the case of `CC1(C)S[C@@H]2[C@H](NC(=O)[C@H](N)c3ccccc3)C(=O)N2[C@H]1C(=O)O` [Ampicillin] it was 4.4 µM. The compound `CO[C@@]1(NC(=O)Cc2cccs2)C(=O)N2C(C(=O)O)=C(COC(N)=O)CS[C@@H]21` [Cefoxitin] came in with an EC50 of 7.6 ± 1 µM. Still for that read-out and setting: in the case of `CN[C@H](CC(C)C)C(=O)N[C@H]1C(=O)N[C@@H](CC(N)=O)C(=O)N[C@H]2C(=O)N[C@H]3C(=O)N[C@H](C(=O)N[C@H](C(=O)O)c4cc(O)cc(O)c4-c4cc3ccc4O)[C@H](O)c3ccc(c(Cl)c3)Oc3cc2cc(c3O[C@@H]2O[C@H](CO)[C@@H](O)[C@H](O)[C@H]2O[C@H]2C[C@](C)(N)[C@H](O)[C@H](C)O2)Oc2ccc(cc2Cl)[C@H]1O` [Vancomycin] it was 3.4 ± 1 µM; in that of `CC[C@H]1OC(=O)[C@H](C)[C@@H](O[C@H]2C[C@@](C)(OC)[C@@H](O)[C@H](C)O2)[C@H](C)[C@@H](O[C@@H]2O[C@H](C)C[C@H](N(C)C)[C@H]2O)[C@](C)(O)C[C@@H](C)/C(=N\OCOCCOC)[C@H](C)[C@@H](O)[C@]1(C)O` [Roxithromycin], 2.9 µM.

Still in this experiment, the particulars now being: read-out: ATPase activity / SC50.
As to `C[C@H]1COc2c(N3CCN(C)CC3)c(F)cc3c(=O)c(C(=O)O)cn1c23` [Levofloxacin], the EC50 came out at 4.5 ± 1 µM.

For the origin of these results see publication PMC5577244, “CD2068 potentially mediates multidrug efflux in Clostridium difficile” (Scientific Reports, 2017).
